Publication PMC3050001 (Science (New York, N.Y.), 2010)

How the values were obtained:
[1] = tested on: P. falciparum parasites (Dd2, NITD609-R^Dd2); assay: [35S]-Met/Cys incorporation assay; format: cell-based, Plasmodium falciparum; details: P. falciparum Dd2, within one hour
P. berghei = format: in vivo, Plasmodium berghei (mice)
P. falciparum strains = details: culture-adapted P. falciparum strains incl. drug-resistant strains
[2] = male rats, oral, daily for 14 days
[3] = tested on: P. falciparum clinical isolates; assay: Ex vivo sensitivity assay with fresh clinical isolates; details: Plasmodium falciparum, in Homo sapiens
[4] = tested on: panel of human G-protein coupled receptors, enzymes and ion channels
[5] = tested on: P. vivax clinical isolates; assay: Ex vivo sensitivity assay with fresh clinical isolates
[6] = tested on: drug-selected Dd2 parasites (NITD609-R^Dd2, NITD678-R^Dd2); details: for cross-resistance in spiroindolone-selected mutants: NITD609- and NITD678-selected Dd2 mutants
[7] = format: in vivo, mice and rats
[8] = miniaturized Ames assay
in vivo = details: male, rat, po
[9] = tested on: synchronized parasites at ring, trophozoite and schizont stages; assay: In vitro drug sensitivity assay with synchronized parasites; format: cell-based, Plasmodium falciparum
[10] = tested on: Dd2^attB parasites expressing mutant PfATP4; assay: Growth inhibition of transgenic pfatp4 lines

C[C@@H]1C[C@@H]([C@H](O)CC2CC(=O)NC(=O)C2)C(=O)[C@@H](C)C1 [cycloheximide]
effect on protein synthesis ([35S]-Met/Cys incorporation) [1]: A similar effect was observed

C[C@H]1Cc2c([nH]c3cc(Cl)c(F)cc23)[C@@]2(N1)C(=O)Nc1ccc(Cl)cc12 [NITD609]
ED90 (P. berghei; oral, P. berghei mouse model): 2.7 mg/kg
IC50 (P. falciparum strains): 0.5 to 1.4 nM
adverse events / histopathological findings [2]: no adverse events or significant histopathological findings were observed
IC50 [3]: < 10 nM
effect on protein synthesis ([35S]-Met/Cys incorporation) [1]: effectively blocked protein synthesis
binding to off-target panel [4]: no significant binding
IC50 ([5]; Plasmodium vivax, in Homo sapiens): < 10 nM
IC50 ([6]; Plasmodium falciparum, DD2, read-out: mean IC50 of drug-selected parasites): 3 to 11 nM
volume of distribution ([7]; mice and rats, oral and intravenous administration): moderate
bioavailability ([7]; orally administered): excellent
half-life ([7]; orally administered): long
oral absorption ([7]; orally administered): well absorbed
intrinsic mutagenic activity [8]: lacked intrinsic mutagenic activity
logD (physchem; pH 7.4): 4.6
pKa (physchem; pKa^2): 10.7
AUC(0-t) (in vivo): 29400 to 56500 ng·h/mL
sensitivity of parasite blood stages ([9]; high concentration, ≈100 × IC50 value): all stages (rings, trophozoites and schizonts) were similarly sensitive
sensitivity of parasite blood stages ([9]; low concentrations, ≈1 or 10 × IC50 value): schizonts were the most susceptible

C[C@@H]1CC[C@H]2[C@@H](C)C(=O)O[C@@H]3O[C@@]4(C)CC[C@@H]1[C@]32OO4 [artemisinin]
effect on protein synthesis ([35S]-Met/Cys incorporation) [1]: only showed a nominal decrease
cross-resistance in spiroindolone-selected mutants [6]: None of the selected mutants showed cross-resistance
potency against wild-type vs transgenic strains [10]: equivalent potency

CO[C@H]1O[C@@H]2O[C@@]3(C)CC[C@H]4[C@H](C)CC[C@@H]([C@H]1C)[C@@]24OO3 [Artemether, reference compound]
Survival (P. berghei; 1 × 100 mg/kg oral, control animals 6–7 days): 7.6 days
inhibition of parasite growth ([9]; treatment at 8 nM for 6 hours): Strong inhibition

OC(c1cc(C(F)(F)F)nc2c(C(F)(F)F)cccc12)C1CCCCN1 (stereo not drawn) [Mefloquine]
effect on protein synthesis ([35S]-Met/Cys incorporation) [1]: only showed a nominal decrease
potency against wild-type vs transgenic strains [10]: equivalent potency

CC(=O)C1=C(O)[C@@H]2[C@H]3c4c[nH]c5cccc(c45)C[C@H]3C(C)(C)N2C1=O [cyclopiazonic acid]
cross-resistance in spiroindolone-selected mutants [6]: no cross-resistance

C/C=C(/C)C(=O)O[C@H]1C(C)=C2[C@H]([C@@H]1OC(=O)CCCCCCC)[C@@](C)(OC(C)=O)C[C@H](OC(=O)CCC)[C@@]1(O)[C@H]2OC(=O)[C@@]1(C)O [thapsigargin]
cross-resistance in spiroindolone-selected mutants [6]: no cross-resistance

COc1ccc(C[C@H]2NC[C@H](O)[C@H]2OC(C)=O)cc1 [anisomycin]
effect on protein synthesis ([35S]-Met/Cys incorporation) [1]: A similar effect was observed

CCN(CC)CCCC(C)Nc1ccnc2cc(Cl)ccc12 (stereo not drawn) [Chloroquine, reference compound]
stage-specific sensitivity (ring vs trophozoite) ([5]; P. vivax, drug exposure 20 h, growth determined after 42 hours): significant stage-specific sensitivity
